Results: PubChem BioAssay AID792 (PCMD, 2007)
Results filed as inconclusive are left out. Activity calls are given as the source filed them. The rule behind the calls is not given here.

Molecular target: S. cerevisiae eIF2B mutant, luciferase reporter luminescence
Experiment: potency on yeast eIF2B luminescence signal – S. cerevisiae, mutant, wild-type, growth, dose response (AID 792)
[1] = measured here: mutant yeast growth

SMILES | IC50 | IC50 [1] [µM] | IC50 (S. cerevisiae wild-type, luminescence) [µM]
COc1ccccc1NC(=O)Cc1csc(N)n1 | > 100 µM (inactive) | > 100 | –
CCOC(=O)N1CCN(C(=O)c2nn(-c3cc(OC)cc(OC)c3)c(=O)c3ccccc23)CC1 | > 100 µM (inactive) | > 100 | –
Cn1c(=O)[nH]c(=O)c2c1nc(Br)n2CCCCSc1nc2ccccc2o1 | > 100 µM (inactive) | > 100 | –
CCOC(=O)Cn1c(=O)c(-c2ccccc2NCc2ccccc2)nc2ccccc21 | > 100 µM (inactive) | > 100 | –
CCOC(=O)C1CCCN(C(=O)C(C)Oc2ccc(Cl)cc2Cl)C1 (stereo unspecified) | > 100 µM (inactive) | > 100 | –
Cc1cccc(-n2nnc3cnn(C)c3c2=O)c1 | > 100 µM (inactive) | > 100 | –
CC(=O)c1ccc(NC(=O)c2noc3c2CCCCC3)cc1 | > 100 µM (inactive) | > 100 | –
O=C(C1CCN(S(=O)(=O)N2CCOCC2)CC1)N1CCOCC1 | > 100 µM (inactive) | > 100 | > 100
Cc1cc(C)c(C#N)c(SCC(=O)Nc2nnc(-c3ccccc3)s2)n1 | > 100 µM (inactive) | > 100 | –
CN1C(=O)N(C)C2(c3ccccc3)NC(=O)NC12c1ccccc1 (stereo unspecified) | > 100 µM (inactive) | > 100 | –
O=C(CC1Nc2ccccc2NC1=O)NC1CCCCC1 (stereo unspecified) | > 100 µM (inactive) | > 100 | –
CC(C)(C)SCCNC(=O)c1ccc(Cl)c(S(=O)(=O)N2CCOCC2)c1 | > 100 µM (inactive) | > 100 | –
CC(N=c1ccccn1C(=O)Nc1cccc(C(F)(F)F)c1)c1ccco1 (stereo unspecified) | > 100 µM (inactive) | > 100 | –
C=CCc1c(C)nc(SC(C)C)[nH]c1=O | > 100 µM (inactive) | > 100 | –
COc1ccc(NC(=O)c2ccco2)cc1NC(=O)c1ccc(C)cc1 | > 100 µM (inactive) | > 100 | –
CCOC(=O)c1nn(-c2cccc(Cl)c2)c2nc(CC(C)C)c(C#N)c(=O)n12 | > 100 µM (inactive) | > 100 | –
CCCCCOC(=O)Cn1c(SCC(=O)Nc2ccccc2)nc2c1c(=O)[nH]c(=O)n2C | > 100 µM (inactive) | > 100 | –
Cc1cc(=O)[nH]c(SCc2cc(Cl)ccc2OC(F)F)n1 | > 100 µM (inactive) | > 100 | –
Cc1ccc(-c2nnc3ccc(SCC(=O)NCc4ccco4)nn23)cc1 | > 100 µM (inactive) | > 100 | –
COc1ccccc1CNC(=O)CN(c1ccc(C)cc1)S(=O)(=O)c1c(C)nn(C)c1C | > 100 µM (inactive) | > 100 | –
Cc1cccc(N2C(=O)C3C4C=CC(C4)C3C2=O)c1 (stereo unspecified) | > 100 µM (inactive) | > 100 | –
Nn1c(CSc2nc3ccccc3o2)nnc1CSc1nc2ccccc2o1 | > 100 µM (inactive) | > 100 | –
CCOc1ccccc1NC(=O)c1ccccc1-c1nc(-c2ccccc2)no1 | > 100 µM (inactive) | > 100 | –
CCCCOc1ccc(C2CC(=O)N(C)C2=O)cc1 (stereo unspecified) | > 100 µM (inactive) | > 100 | –
Cc1nnc(NC2CCCCC2)[nH]c1=O | > 100 µM (inactive) | > 100 | –
Cc1ccc(C)c(N2CCN(S(=O)(=O)c3ccc4[nH]c(=O)c(=O)[nH]c4c3)CC2)c1 | > 100 µM (inactive) | > 100 | –
O=C(NC1CCCC1)C(c1ccccc1)N(Cc1ccco1)C(=O)Cc1cccs1 (stereo unspecified) | > 100 µM (inactive) | > 100 | –

SMILES | IC50 | IC50 [1] [µM] | IC50 (S. cerevisiae wild-type, luminescence) [µM]
CCOC(=O)CC(=O)CSc1nc(C)cc(-c2cccnc2)c1C#N | > 100 µM (inactive) | > 100 | –
Cc1noc(C)c1C(=O)Nc1ccc2c(c1)CCC2 | > 100 µM (inactive) | > 100 | –
CCc1cc(=O)oc2cc3oc(C)c(C)c3cc12 | > 100 µM (inactive) | > 100 | –
CCOCCCNC(=O)c1c[nH]c2ccc(C)cc2c1=O | > 100 µM (inactive) | > 100 | –
CNC(=O)CSc1nc(N)c2c3c(sc2n1)CCC3 | > 100 µM (inactive) | > 100 | –
COC(=O)c1ccc(NS(=O)(=O)N(C)C)cc1 | > 100 µM (inactive) | > 100 | –
CN1CCN(CCC(=O)Nc2ccc3c(c2)OCO3)CC1 | > 100 µM (inactive) | > 100 | –
CCOCCCNC(=O)C1CCN(c2cc(C)nc3c(-c4ccc(OC)c(OC)c4)c(C)nn23)CC1 | > 100 µM (inactive) | > 100 | –
CN1CCc2nc(SCC(=O)Nc3ccc(Cl)cc3)c(C#N)cc2C1 | > 100 µM (inactive) | > 100 | –
Cc1ncc(CC(=O)n2cc(C(=O)c3cc(F)ccc3O)cn2)s1 | > 100 µM (inactive) | > 100 | –
CC(C)OC(=O)CCc1nc2ccccc2[nH]c1=O | > 100 µM (inactive) | > 100 | –
CCCc1nc(-c2ccccc2O)n(-c2ccccc2)n1 | > 100 µM (inactive) | > 100 | –
O=c1c2ccccc2nc(CN2CCOCC2)n1-c1ccccc1F | > 100 µM (inactive) | > 100 | –
CCCC(CCC(=O)NC1CCCCC1)C(=O)O (stereo unspecified) | > 100 µM (inactive) | > 100 | –
COc1ccccc1Nc1nc(C)cc(C)c1C(N)=O | > 100 µM (inactive) | > 100 | –
C=CCOC(=O)C1=C(C)Nc2nc3ccccc3n2C1c1ccncc1 (stereo unspecified) | > 100 µM (inactive) | > 100 | –
CC(=C1C(=O)c2ccccc2C1=O)N1CCN(CCN=Cc2c(O)n(C)c(=O)n(C)c2=O)CC1 | > 100 µM (inactive) | > 100 | –
COc1ccc(OC)c2c(N3CCN(C)CC3)cc(C(F)(F)F)nc12 | > 100 µM (inactive) | > 100 | –
O=C(Nc1nc(-c2ccc(S(=O)(=O)N3CCCCCC3)cc2)cs1)c1cccs1 | > 100 µM (inactive) | > 100 | –
COCCn1c(C)cc(C2=NNC(=Nc3ccccc3)SC2)c1C | > 100 µM (inactive) | > 100 | –
Cn1c(CNc2ccccc2)cc(=O)n(C)c1=O | > 100 µM (inactive) | > 100 | –
COC(=O)c1ccccc1NC(=O)CSc1nc(-c2ccco2)cc(C(F)(F)F)n1 | > 100 µM (inactive) | > 100 | –
CC(C)c1[nH]c(=O)c(C#N)c2c1COC(C)(C)C2 | > 100 µM (inactive) | > 100 | –
Cc1cccc2cc3c(NC(=O)c4ccccn4)nn(C)c3nc12 | > 100 µM (inactive) | 64.2 | –
COc1cccc(-n2c(C)nnc2SCC(=O)Nc2ccccc2N2CCOCC2)c1 | > 100 µM (inactive) | > 100 | –
COc1ccc2c(c1)CCc1c(C(=O)NCc3cccnc3)noc1-2 | > 100 µM (inactive) | > 100 | –
Cc1cc(C(=O)Nc2sc3c(c2C#N)CCC(C)C3)no1 (stereo unspecified) | > 100 µM (inactive) | > 100 | –

SMILES | IC50 | IC50 [1] [µM] | IC50 (S. cerevisiae wild-type, luminescence) [µM]
CCC(=O)N1CCc2cc(S(=O)(=O)NC(C(=O)NCc3ccc(F)cc3)C(C)C)ccc21 (stereo unspecified) | > 100 µM (inactive) | > 100 | –
C=CCc1c(C)nc(C)nc1N/N=C/c1ccccc1O | > 100 µM (inactive) | > 100 | –
Cn1c(=O)n(CC(=O)N2CCC3(CC2)OCCO3)c(=O)c2ccccc21 | > 100 µM (inactive) | > 100 | –
COCCn1c(-c2ccccc2)cc(C(=O)O)c1C | > 100 µM (inactive) | > 100 | –
CCCCCn1c(NC(=O)c2ccco2)c(S(=O)(=O)c2ccc(C)cc2)c2nc3ccccc3nc21 | > 100 µM (inactive) | > 100 | –
COc1ccc(N/C=C(\C#N)c2nc3ccccc3n2C)c(OC)c1 | > 100 µM (inactive) | > 100 | –
CCOC(=O)c1oc2cc(O)ccc2c(=O)c1-c1csc(C)n1 | > 100 µM (inactive) | > 100 | –
CC(C)CNC(=O)c1cc2nc(C3CC3)cc(C(F)(F)F)n2n1 | > 100 µM (inactive) | > 100 | –
CCCCCn1c(SCC(=O)OCC)nc2cc(C(=O)NCc3ccco3)ccc2c1=O | > 100 µM (inactive) | > 100 | –
Cc1nc2ccc(NC(=O)Cc3ccsc3)cc2s1 | > 100 µM (inactive) | > 100 | –
COC(=O)c1sc(NC(=O)COc2cccc3ccccc23)nc1C | > 100 µM (inactive) | > 100 | –
Fc1ccc2nc(Nc3nc4c(s3)CCCC4)sc2c1 | > 100 µM (inactive) | > 100 | –
O=C(O)c1ccc(CSc2n[nH]c(-c3ccco3)n2)cc1 | > 100 µM (inactive) | > 100 | –
O=C(Nc1ccc2nc(-c3ccc4nc[nH]c4c3)[nH]c2c1)c1cccs1 | > 100 µM (inactive) | > 100 | –
COc1ccc(Cl)cc1-n1c(N)c(C(N)=O)sc1=S | > 100 µM (inactive) | > 100 | –
Cc1cc(C)n(-c2cc(C(C)(C)C)nc3c(-c4ccc(Cl)cc4)cnn23)n1 | > 100 µM (inactive) | > 100 | –
CN1C(=O)CC2(CC(=O)N(Cc3ccccc3)C2)C1=O (stereo unspecified) | > 100 µM (inactive) | > 100 | –
CC(=O)Nc1ccc(OCC(O)CN2CCN(S(=O)(=O)c3ccc(NC(C)=O)cc3)CC2)cc1 (stereo unspecified) | > 100 µM (inactive) | > 100 | –
COC(=O)CSc1nnc2n(-c3ccc(OC)cc3)c(=O)c3c4c(sc3n12)CCCCC4 | > 100 µM (inactive) | 87.1 | –
CC(C)CC[n+]1ccn(-c2nc3ccccc3nc2[N-]S(=O)(=O)c2ccccc2)c1 | > 100 µM (inactive) | > 100 | –
CCn1c(Cc2ccccc2)nnc1SCC(=O)Nc1nnc(-c2ccccc2)s1 | > 100 µM (inactive) | > 100 | –
CCOc1cc(-c2nc(-c3ccc(C)nc3OCC)no2)cc(OCC)c1OCC | > 100 µM (inactive) | > 100 | –
COC(=O)c1cccc(NC(=O)c2ccc(S(=O)(=O)N3CCN(C)CC3)cc2)c1 | > 100 µM (inactive) | > 100 | –
CCOC(=O)c1sc(N)c(C#N)c1CSc1nc2ccc(C)cc2[nH]1 | > 100 µM (inactive) | > 100 | –
Cc1cc(=O)oc2ccc(OCC(=O)N3CCc4ccccc43)cc12 | > 100 µM (inactive) | > 100 | –
Cc1cccc(N2C(=O)c3cccnc3C2=O)c1 | > 100 µM (inactive) | > 100 | –
